The results in this text go back to patent US20230128688A1, “DIRECTED CONJUGATION TECHNOLOGIES” (KLEO PHARMACEUTICALS, INC., priority 2019, published 2023).

One experiment concerns daratumumab. The experiment can be described thus: Absorbance based DAR analysis of FITC conjugation to antibody. Format: biochemical. How it is done:
(§1) In some embodiments, reaction partners, e.g., compounds of formula R-I or salts thereof ere dissolved in DMSO to 5 mM stock solution.
(§2) In some embodiments, reactions are set up with 300 micrograms of antibody. In some embodiments, various conditions, including various buffers, reagent equivalents, reaction time, reaction temperature and reaction concentrations can be utilized.
As an example, one reaction is 300 microliter reaction with 1 mg/mL of antibody in PBS. Peptide I-45 (1 microliter of 5 mM stock in DMSO, 2.5 molar equivalents relative to daratumumab) was diluted in 284 microliters of PBS buffer (10 mM phosphate, 150 mM sodium chloride, pH 7.4), then 15 microliters of daratumumab (20 mg/mL stock) was added to the reaction mixture followed by incubation at room temperature in the dark. After 4 h reaction buffer was exchanged using Amicon Ultra centrifuge filter (30 KDa MWCO, 0.5 mL volume). First, glycine buffer (100 mM, pH 2.1) was used for buffer exchange to ensure dissociation of target binding moieties after reaction. Then, phosphate buffer saline (pH 7.4) was used for further buffer exchange and storage.
In another example, a reaction is 300 microliter reaction with 1 mg/mL of antibody in borate buffer. Peptide I-44 (1.2 microliter of 5 mM stock in DMSO, 3.0 molar equivalents relative to daratumumab) was diluted in 284 microliters of Borate buffer (100 mM borate, pH 8.3), then 15 microliters of daratumumab (20 mg/mL stock) was added to the reaction mixture followed by incubation at room temperature in the dark. After 20 h reaction buffer was exchanged using Amicon Ultra centrifuge filter (30 KDa MWCO, 0.5 mL volume). First, glycine buffer (100 mM, pH 2.1) was used for buffer exchange to ensure dissociation of target binding moieties after reaction. Then, phosphate buffer saline (10 mM phosphate, 150 mM sodium chloride, pH 7.4) was used for further buffer exchange and storage.
(§3) In some embodiments, a useful technology is absorbance based DAR analysis. DAR (ratio of moieties of interest and target agent moieties (e.g., antibody agent moieties) was calculated for various antibody conjugates, e.g., in various reagent screening/assessment methods. Various agents comprising target binding moieties were assessed for conjugation efficiency as reaction partners with targets, e.g. protein agents such as antibody agents, compared to reagents with the same reactive groups but without target binding moieties. In various ratio determination ‘Drug’/moiety of interest is fluorescein isothiocyanate (FITC) dye conjugated to target agents, e.g., antibody agents. DAR molar ratio is defined as a ratio of moles of drug/moiety of interest to moles of target agent/antibody. Molarity is calculated from absorbance of FITC (A485) and antibody (A280) of conjugated product, and extinction coefficients of FITC and antibody using Beer-Lambert law. Correction coefficient 0.35 was used to correct for absorbance of FITC at 280 nm. Biotek Synergy H1 microplate reader and Take3 microvolume plate were used for absorbance measurements. Concentration of antibody was at least 3 mg/mL for optimal signal-to-noise in the readings. Certain target binding moieties that can provide higher DAR compared to equivalent controls (absence of target binding moieties) were selected as hits for further analysis. Certain assessment data were provided below as examples.

The test system of the next experiment is Cetuximab. Described as above. The following applies: 2.5 M eq reagent, phosphate buffer saline pH 7.4, 4 h, 25 C; Drug = FITC. Format: biochemical. How it is done:
as §1, §2, §3
Reactions were set up with antibodies using 2.5 M eq of indicated reagent in phosphate buffer saline pH 7.4 for 4 h at 25° C. DAR is Drug to antibody ratio, in this case “Drug” is FITC and DAR is measured using FITC absorbance.

The mark [1] stands for this setting: 2.5 M eq reagent, phosphate buffer saline pH 7.4, 4 h, 25 C, Drug = FITC.
Where [2] appears, read: antibody 1 mg/mL, 2.5 M eq, 25 C, 20 h, PBS pH 7.4.
Where [3] appears, read: antibody 1 mg/mL, 3 M eq, 25 C, 20 h, PBS pH 7.4.
Setting [4] is: antibody 1 mg/mL, 3.5 M eq, 25 C, 20 h, PBS pH 7.4.
The mark [5] stands for this setting: antibody 4 mg/mL, 2.5 M eq, 25 C, 20 h, PBS pH 7.4.
Setting [6] is: antibody 4 mg/mL, 3 M eq, 25 C, 20 h, PBS pH 7.4.
The mark [7] stands for this setting: antibody 4 mg/mL, 3.5 M eq, 25 C, 20 h, PBS pH 7.4.
The mark [8] stands for this setting: 2.5 M eq, 25 C, 4 h, PBS pH 7.4.
Where [9] appears, read: 5 M eq reagent, phosphate buffer saline pH 7.4, 4 h, 25 C, Drug = FITC.
The mark [10] stands for this setting: 2.5 M eq, 25 C, 20 h, Borate pH 8.2.
[11] abbreviates: 2.5 M eq, 25 C, 20 h, PBS pH 7.4.
Where [12] appears, read: 2.5 M eq, 25 C, 20 h, PBS pH 7.8.
[13] abbreviates: 2.5 M eq, 25 C, 20 h, PBS pH 8.0.
[14] abbreviates: 2.5 M eq, 25 C, 20 h, PBS pH 8.2.
Where [15] appears, read: 2.5 M eq, 30 C, 20 h, PBS pH 7.4.
The mark [16] stands for this setting: 2.5 M eq, 37 C, 20 h, PBS pH 7.4.

The structures appear in SMILES notation. Starred links: 1 amine or outer side, 2 acyl side, 3 side chain; linkers in the order of their positions; H or OH if unused. Positions of bridges follow the written chain, without caps; N, C: chain ends. Non-standard residues stand in square brackets, D forms with d. Residues, ends and D or L forms follow the SMILES beside them. Groups on a side chain read outwards from the residue. *: point of attachment. X2 = O=C(CCOCCOCCOCCOCCOCCOCCNC(=S)Nc1ccc2c(c1)C(=O)OC21c2ccc(O)cc2Oc2cc(O)ccc21)Oc1c(F)cc(CN*)cc1F; FITC = O=C1OC2(c3ccc(O)cc3Oc3cc(O)ccc32)c2ccc(NC(=S)*)cc21; X6 = O=C([C@H](Cc1cccc(O[*:3])c1)N[*:1])[*:2]; PEG8 = NCCOCCOCCOCCOCCOCCOCCOCCOCCC(=O)O; PEG4 = NCCOCCOCCOCCOCCC(=O)O

Consider `CC(=O)NCc1cc(F)c(OC(=O)CCOCCOCCOCCOCCOCCOCCNC(=S)Nc2ccc3c(c2)C(=O)OC32c3ccc(O)cc3Oc3cc(O)ccc32)c(F)c1` [Compound I-9], for which the DAR is recorded as 0.06 in the experiment with daratumumab (setting [1]); 1.10 in the experiment with daratumumab (10 M eq reagent, Bicarbonate buffer pH 8.3, 2 h, 37 C, Drug = FITC); 0.19 in the experiment with daratumumab (setting [2]); 0.18 in the experiment on daratumumab (setting [3]); 0.24 with daratumumab (setting [4]); 0.37 in the experiment with daratumumab (setting [5]). In addition, the DAR is 0.49 in the experiment with daratumumab (setting [6]) and 0.44 in the experiment with daratumumab (setting [7]). The “DAR Daratumumab” value in the experiment on daratumumab (setting [1]) is 0.06. The “DAR Cetuximab” value in the experiment with Cetuximab worked out at 0.03.
On to `CCNC(=O)c1ccc(OC(=O)CCOCCOCCOCCOCCOCCOCCNC(=S)Nc2ccc3c(c2)C(=O)OC32c3ccc(O)cc3Oc3cc(O)ccc32)c(F)c1` [Compound I-18], for which the DAR in the experiment on daratumumab (setting [1]) was found to be 0.05; with daratumumab (2.5 M eq, 25 C, 4 h, Acetate pH 6.2), 0.08; in the experiment with daratumumab (2.5 M eq, 25 C, 4 h, Borate pH 8.3), 0.35; in the experiment with daratumumab (setting [8]) it was 0.05; in the experiment with daratumumab (setting [9]), 0.15; in the experiment with daratumumab (5 M eq, 25 C, 4 h, Acetate pH 6.2), 0.14. For the same compound, the DAR in the experiment on daratumumab (5 M eq, 25 C, 4 h, Borate pH 8.3) came to 0.42; with daratumumab (5 M eq, 25 C, 4 h, PBS pH 7.4) it was 0.08; in the experiment with daratumumab (10 M eq, 25 C, 2 h, Acetate pH 6.2), 0.12; in the experiment with daratumumab (10 M eq, 25 C, 4 h, Borate pH 8.3), 0.77; in the experiment with daratumumab (10 M eq, 25 C, 4 h, PBS pH 7.4), 0.15. Also, in the experiment with daratumumab (setting [1]), the “DAR Daratumumab” value was found to be 0.05. Moreover, the “DAR Cetuximab” value with Cetuximab is on record as 0.04.
Regarding `CC(=O)N[C@@H](CC(=O)O)C(=O)N[C@H]1CSSC[C@@H](C(=O)N[C@H](C(=O)O)[C@@H](C)O)NC(=O)[C@H](Cc2c[nH]c3ccccc23)NC(=O)[C@H](C(C)C)NC(=O)[C@H](CC(C)C)NC(=O)[C@H](CCC(=O)O)NC(=O)CNC(=O)[C@H](CC(C)C)NC(=O)[C@H](CCNC(=O)c2ccc(OC(=O)CCOCCOCCOCCOCCOCCOCCNC(=S)Nc3ccc4c(c3)C(=O)OC43c4ccc(O)cc4Oc4cc(O)ccc43)cc2)NC(=O)[C@H](Cc2c[nH]c3ccccc23)NC(=O)[C@H](C)NC1=O` [Compound I-42], the DAR in the experiment with daratumumab (setting [1]) is 0.13.
On the same count and under the same terms, the same measure for `CC(=O)N[C@@H](CC(=O)O)C(=O)N[C@H]1CSSC[C@@H](C(=O)N[C@H](C(=O)O)[C@@H](C)O)NC(=O)[C@H](Cc2c[nH]c3ccccc23)NC(=O)[C@H](C(C)C)NC(=O)[C@H](CC(C)C)NC(=O)[C@H](CCC(=O)O)NC(=O)CNC(=O)[C@H](CC(C)C)NC(=O)[C@H](CC(=O)NCc2ccc(OC(=O)CCOCCOCCOCCOCCOCCOCCNC(=S)Nc3ccc4c(c3)C(=O)OC43c4ccc(O)cc4Oc4cc(O)ccc43)cc2)NC(=O)[C@H](Cc2c[nH]c3ccccc23)NC(=O)[C@H](C)NC1=O` [Compound I-43]: 0.26.
With `CC(=O)N[C@@H](CC(=O)O)C(=O)N[C@H]1CSSC[C@@H](C(=O)N[C@H](C(=O)O)[C@@H](C)O)NC(=O)[C@H](Cc2c[nH]c3ccccc23)NC(=O)[C@H](C(C)C)NC(=O)[C@H](CC(C)C)NC(=O)[C@H](CCC(=O)O)NC(=O)CNC(=O)[C@H](CC(C)C)NC(=O)[C@H](CC(=O)NCc2ccc(OC(=O)CCOCCOCCOCCOCCOCCOCCOCCOCCNC(=S)Nc3ccc4c(c3)C(=O)OC43c4ccc(O)cc4Oc4cc(O)ccc43)c(F)c2)NC(=O)[C@H](Cc2c[nH]c3ccccc23)NC(=O)[C@H](C)NC1=O` [Compound I-44], the DAR with daratumumab (setting [1]) was 0.59; in the experiment on daratumumab (setting [8]), 0.59; with daratumumab (setting [10]), 1.42; in the experiment on daratumumab (setting [11]), 1.09; in the experiment on daratumumab (setting [12]), 1.00; in the experiment on daratumumab (setting [13]), 0.99. Also, the results for the DAR in the experiment on daratumumab (setting [14]), in the experiment with daratumumab (setting [15]) and in the experiment on daratumumab (setting [16]) were 1.14, 1.15 and 1.66, respectively. Besides, the “Fold (DAR I-44 over I-10)” value in the experiment on daratumumab (setting [8]) amounted to 7.79; in the experiment on daratumumab (setting [10]), 6.83; in the experiment on daratumumab (setting [11]), 16.08; in the experiment with daratumumab (setting [12]) it was 6.58; in the experiment on daratumumab (setting [13]) it was 15.39; with daratumumab (setting [14]) it was 36.42. For the same compound, the “Fold (DAR I-44 over I-10)” value with daratumumab (setting [15]) is recorded as 21.43; in the experiment on daratumumab (setting [16]), 9.77. Further, the “FITC DAR” value in the experiment with daratumumab (FIG. 16 (e): Borate buffer pH 8.2, 25 C, 20 h, 2.5 M eq) was 0.21.
Take `CC(=O)NCC(=O)N[C@@H](CO)C(=O)N[C@@H](Cc1ccc(O)cc1)C(=O)N[C@@H](Cc1c[nH]c2ccccc12)C(=O)N[C@@H](Cc1ccc(O)cc1)C(=O)N[C@@H](CC(=O)O)C(=O)N[C@H](C(=O)N[C@@H](Cc1c[nH]c2ccccc12)C(=O)N[C@@H](Cc1ccccc1)C(=O)NCCOCCOCCOCCOCCC(=O)NCc1cc(F)c(OC(=O)CCOCCOCCOCCOCCOCCOCCNC(=S)Nc2ccc3c(c2)C(=O)OC32c3ccc(O)cc3Oc3cc(O)ccc32)c(F)c1)C(C)C` [Compound I-45] (Ac-GSYWYDVWF[PEG4]-X2): the DAR with daratumumab (setting [1]) amounted to 0.64; in the experiment on daratumumab (setting [2]), 0.90; with daratumumab (setting [3]), 0.96; with daratumumab (setting [4]) it was 1.06; in the experiment with daratumumab (setting [5]) it was 1.04; in the experiment with daratumumab (setting [6]), 1.09. Moreover, in the experiment with daratumumab (setting [7]), the DAR is listed as 1.06. The “DAR Daratumumab” value with daratumumab (setting [1]) worked out at 0.64. The “Fold (DAR I-45 over I-9)” value with daratumumab (setting [2]) is given as 4.78; in the experiment with daratumumab (setting [3]) it was 5.31; in the experiment on daratumumab (setting [4]) it was 4.39; in the experiment with daratumumab (setting [5]) it was 2.81; in the experiment with daratumumab (setting [6]), 2.23; in the experiment on daratumumab (setting [7]), 2.40. In addition, the “FITC DAR” value in the experiment on daratumumab (sample (a) of FIG. 12 / FIG. 13) was 0.43. Further, the “DAR Cetuximab” value in the experiment with Cetuximab came to 0.70.
Regarding `CC(=O)N[C@@H](CC(=O)O)C(=O)N[C@H]1CSSC[C@@H](C(=O)N[C@H](C(=O)O)C(C)C)NC(=O)[C@H](Cc2c[nH]c3ccccc23)NC(=O)[C@H](C(C)C)NC(=O)[C@H](CC(C)C)NC(=O)[C@H](CCC(=O)O)NC(=O)CNC(=O)[C@H](CC(C)C)NC(=O)[C@H](Cc2cccc(OC(=O)CCOCCOCCOCCOCCOCCOCCOCCOCCNC(=S)Nc3ccc4c(c3)C(=O)OC43c4ccc(O)cc4Oc4cc(O)ccc43)c2)NC(=O)[C@H](Cc2c[nH]c3ccccc23)NC(=O)[C@H](C)NC1=O` [Compound I-46] (Ac-DCAW[X6]([PEG8-FITC])LGELVWCV-OH; disulfide 2-12), the DAR is given as 0.15 with daratumumab (setting [9]) and 0.43 in the experiment with daratumumab (30 M eq reagent, borate buffer pH 8.3, 20 h, 37 C, Drug = FITC).
